Test system: cocultured CHO-JAM-A and Lec2-JAM-A cells
Test: Single particle tracking by dynamic confocal microscopy
Format: cell-based
Method: A coculture of Lec2-JAM-A mCherry and CHO-JAM-A cells was seeded onto a 47-mm glass-bottomed petri dish (WillCo Wells) 1 or 2 d before the experiment to ensure formation of a confluent monolayer on the day of the experiment. Cells were imaged by laser scanning confocal microscopy using a Zeiss LSM 880 microscope with a 561 nm laser for mCherry and a 488 nm laser for Alexa488 and a 40× oil objective (NA=0.95). All experiments were conducted at room temperature with cells maintained in Ham's F12 culture medium and a gas mixture of synthetic air with 5% CO2 at 95% relative humidity that was infused at 0.1 L min^−1 into the microscopy chamber using a gas humidifier membrane (PermSelect silicone). The humidity was controlled using a humidity sensor (Sensirion). To ensure virus binding (and not internalization), the cells were placed on ice for 30 min before starting the experiment. After finding an area in which both cell types were adjacent (guided by fluorescence), Alexa488-labelled T3SA+ or T3SA− viruses (10^12 particles/mL) diluted in either F12 Ham's culture medium or 1 mM Neu5Ac solution (on ice) were added to the living cells. The fluorescent signal from both dyes (mCherry and Alexa488) as well as the signal from the PMT channel was recorded for a ˜30 min interval immediately after virus injection at a frame-rate of one image every 13.32 seconds. During recording, the focus was kept constant on the upper surface of cells. Fluorescence images were exported as 12-bit TIFF files, merged into a movie, and further processed using ImageJ (National Institutes of Health, Bethesda). Trajectories were harvested and analyzed using MTrackJ, an ImageJ plugin to track moving viral particles in the movie and obtain track statistics. The latter were further processed using Origin.

Structure (SMILES): CC(=O)N[C@H]1[C@H]([C@H](O)[C@H](O)CO)OC(O)(C(=O)O)C[C@@H]1O (stereo partly drawn) [Neu5Ac, N-acetylneuraminic acid]
- number of T3SA+ particles bound to CHO-JAM-A cells (1 mM free SA, FIG. 10g): significantly increased
- diffusion potential of T3SA+ particles on the cell surface (1 mM glycan injected with viral particles, FIG. 10f): significant decrease of their diffusion potential
- effect of free SA on diffusion and bound particles of T3SA− (1 mM, FIG. 10g): this effect was not observed

— patent publication US20220111034A1, “VIRUS COMPOSITIONS” (priority 2019, published 2022)
